Experimental data reported in a melting point compilation (Tetko et al.; mined from patent text by program, amines drawn as free bases though some values may be those of a salt).

| Compound | melting point [°C] |
| --- | --- |
| ON=C(c1ccccc1)c1nsc2nc3ccccc3n12 | 247 |
| Cc1c(C(F)(F)F)ncn1-c1ncc(C(F)(F)F)cc1Cl | 59.4 |
| CC1(Cn2nc(-c3ccc(OC(F)(F)F)cc3)oc2=O)Cn2cc([N+](=O)[O-])nc2O1 (stereo not given) | 146 to 148 |
| Cc1oncc1C(=O)N1CCC[C@H](c2nc(-c3ccc[nH]3)no2)C1 | 125 to 127 |
| N#CC(C#N)=C1Sc2nc3cc(Cl)c([N+](=O)[O-])cc3nc2S1 | 297 to 299 |
| Clc1cccc2c(C3=CCNCC3)c[nH]c12 | 197 to 201 |
| O=C(O)/C=C/c1cccc(-c2nc3c(=O)n(CC4CCCCC4)c(=O)n(CC4CCCCC4)c3[nH]2)c1 | > 350 |
| COc1ccc(CC#N)c(C)c1OC | 60 to 63 |
| N#CCOC(=O)C=Cc1cc2ccccc2o1 | 119 to 121 |
| CCOC(=O)C(=NOC)c1noc(N)n1 | 143 to 146 |
| Cc1cc2c(cc1C)N(C)C(=O)C(CC(=O)O)C2c1ccccc1Cl (stereo not given) | 210 to 215 |
| COC1=CC=C2C(=CCC(C)(c3ccc(OC)cc3)C2CCCCCCO)C1 (stereo not given) | 76 to 83 |
| COc1ccc2c(N(C)CCc3ccccn3)noc2c1 | 152 to 153 |
| COC(=O)Cc1ccc(OCCNC(=O)C2Cc3ccccc3N2S(=O)(=O)c2ccc(-c3cc(C(F)(F)F)ccc3Cl)cc2)c(F)c1 (stereo not given) | 56 to 62 |
| Cc1cccc(-c2nc3ccc(OCCN4CCN(C)CC4)cc3n2Cc2ccccc2)c1 | 91 |
| O=C1CCC(=O)N1CCc1ccc(OC(F)(F)F)cc1 | 91 to 93 |
| CNC(=O)[C@@H]1C[C@@H](OCC2CC2)CN1S(=O)(=O)c1ccc(Cl)c(CBr)c1Cl | 161 |
| CC(=O)OC1CCc2oc3ccc(Br)cc3c(=O)c2C1 (stereo not given) | 178 |
| CC(Nc1ccccc1N)=C1C(=O)OC(=O)C(C(=O)C=Cc2ccc(O)cc2)=C1O | 223 to 225 |
| O=C1N(Cc2ccc(Cl)cc2)c2ccccc2C1(O)c1cccs1 (stereo not given) | 140 to 143 |
| CC1CC(C)CN(C(=O)c2ccccc2)C1 (stereo not given) | 107 to 109 |

| Compound | melting point [°C] |
| --- | --- |
| CC(C)(C(=O)O)c1cccc(O[Si](C)(C)C(C)(C)C)c1 | 72 to 74 |
| O=C(O)Cc1ccc(Oc2ccccc2CC(=O)O)cc1 | 150 to 152 |
| Cc1cc(-n2c(C)ccc2-c2ccc(S(C)(=O)=O)c(F)c2)ccc1-c1cscn1 | 179 to 181 |
| CCCn1cc2c(C3C(=O)Nc4ccc(Br)cc43)ncnc2n1 (stereo not given) | > 300 |
| CC(c1ccc(-c2ccccc2)c(F)c1)c1csc(NC(=O)c2ccccc2)n1 (stereo not given) | 147 to 148 |
| Cc1c(Br)c2c(c(C)c1NC(=O)OC(C)(C)C)CC(C)(C)O2 | 115 to 117 |
| CC1COc2c(F)c(F)cc3c(=O)c(C(=O)O)cn1c23 (stereo not given) | > 280 |
| CC(C)(C)Cn1cc(-c2ccc(Oc3ccccc3)cc2)c2c(N)ncnc21 | 158 |
| CCOC(=O)c1cc(CC(C(=O)OCC)C(=O)OCC)c2ccccn2c1=O | 105 to 108 |
| CCCCN(C(C)=O)C1CC(C)(C)N(OC(=O)C(C)(C)C)C(C)(C)C1 | 81 to 94 |
| OC(=S)CC(c1ccc(OCc2ccc3ccccc3n2)cc1)c1ccc(OCc2ccc3ccccc3n2)cc1 | 175 to 180 |
| COC(Cc1cc(C)c(OCCc2nc(C(C)(C)C)oc2C)c(C)c1)C(=O)O (stereo not given) | 78 to 80 |
| CC(=O)Oc1ccc(C2=CC(C)(C)c3ccccc3O2)cc1 | 84 to 86 |
| O=S(=O)(c1ccc(Cl)cc1)C1(c2nnnn2Cc2ccccc2)CCCCC1 | 154 to 155 |
| COCC1=C(C(=O)OC)C(c2ccccc2Cl)c2c[nH]nc2N1 (stereo not given) | 160 |
| C#CCn1c(-c2ccccc2)nn(C(C)(C)C)c1=O | 82 to 83 |
| NS(=O)(=O)Oc1ccc2c(C3CCCCC3)csc2c1 | 128 |
| OC1Cc2ccccc2Sc2cc(Cl)c(Cl)cc21 (stereo not given) | 124 to 126 |
| COC(=O)CN1C(=O)CN=C(c2ccccc2Cl)c2cc(Cl)ccc21 | 193 to 194 |
| CCC(C)C(C)C(=O)Nc1ccc2c(C)cn3c(=O)c(C(=O)Nc4nnn[nH]4)cnc3c2c1 (stereo not given) | > 300 |
| O=C(COc1ccc(Cl)c(Cl)c1)Nc1cscc1C(=O)O | 258 to 264 |

Second part, the compound after the results:

| melting point [°C] | Compound |
| --- | --- |
| 211 to 212 | Cc1ccc(C(=O)Nc2nccc(-c3c(-c4cccc(C)c4)nc4cccnn34)n2)cc1 |
| 146 to 148 | COCCOCc1c(CN(C)CC(O)c2ncccn2)sc2c(=O)c(C(=O)NCc3ccc(Cl)cc3)cn(C)c12 (stereo not given) |
| 208 to 210 | COC(=O)C1=CC2=CCC3C(CCC4(C)C(C(=O)c5ccc(O)cc5)CCC34)C2(C)CC1 (stereo not given) |
| 263 to 265 | COc1ccc(Cn2c(=O)[nH]c3ccc(C)cc3c2=O)cc1 |
| 150 | COc1ccc2[nH]cc(C3CCN(CCCCN4C(=O)CC5(CCCC5)CC4=O)CC3)c2c1 |
| 214 | CC1NC(=O)NN=C1c1ccccc1 (stereo not given) |
| 154 to 155 | N#CN=C(Nc1cccnc1)Oc1ccccc1 |
| 150 to 151 | Cc1c(CC(=O)O)c2cc(OCc3csc(-c4ccccc4)n3)ccc2n1Cc1ccccc1 |
| 81 to 82 | CCOC(=O)Cc1ccc2oc(-c3ccc(Cl)cc3)nc2c1 |
| 260 | CC(C)N1C(=O)CCCc2cc(Nc3ncc(Cl)c(NC4C5C=CC(C5)C4C(N)=O)n3)ccc21 (stereo not given) |
| 351 to 353 | Cc1nc2c(C(F)(F)F)cccc2c(=O)n1C1CCC(=O)NC1=O (stereo not given) |
| 121 to 126 | CCCCCCCN(C[C@H]1CCC[C@H](CN(CCCCCCC)C(=O)Nc2ccc(N(C)C)cc2)C1)C(=O)Nc1ccc(N(C)C)cc1 (relative stereo) |
| 104 to 106 | OC(CN1CCCCC1)c1cc(-c2ccccc2)on1 (stereo not given) |
| 207 to 208 | O=CC(=Cc1ccc(OC(=O)c2ccccc2)cc1)C(C=O)=Cc1ccc(OC(=O)c2ccccc2)cc1 |
| 148 to 150 | C#Cc1cccc([C@H]2C[C@H]2NC(=O)Nc2ccc(Cl)cn2)c1 (racemic) |
| 92 to 94 | Cc1ccc2ccccc2c1NC1COC(=O)C1 (stereo not given) |
| 198 to 199 | SC1=Nc2ccccc2SN1 |
| 88 | COc1ccc2c(C(=O)CC(C)=O)c(OC)ccc2c1 |
| 144 | Cc1ccc(N)cc1Nc1ncc(-c2ccc(C#N)cc2)o1 |
| 45 to 48 | O=CO[C@H]1CC[C@H](NC(=O)OCc2ccccc2)C1 (relative stereo) |
| 196 to 198 | CC(Cn1ncnn1)n1nnc2cc3c(=O)n(CCF)nnc3cc2c1=O (stereo not given) |
| 120 to 121 | CC(C)(C)OCc1cc(C(C)(C)C)cc(COC(C)(C)C)c1SSc1c(COC(C)(C)C)cc(C(C)(C)C)cc1COC(C)(C)C |
| 199 to 200 | CC1(C2CCCC2)Cc2cc(NCC(=O)O)c(Cl)c(Cl)c2C1=O (stereo not given) |
| 282 to 286 | O=C(O)c1cn2c3c(cc(Cl)cc3c1=O)CCC2 |
| 97 to 100 | COCCOc1ccc(CCCNS(=O)(=O)Cc2ccccc2)c(Oc2ncc(C(F)(F)F)cc2Cl)c1 |
| 117 to 119 | CN(C)CCCc1nc2ccccc2[nH]1 |
| 242 | CCOC(=O)c1ccc(N2CCN(Cc3cnc4c(c3)NC(=O)[C@@H]3CCCN43)CC2)cc1 |
| 148 to 150 | O=C1OC(CCCO)C(c2ccccc2)=C1O (stereo not given) |
